Patent US6472349B1, “Pyridine-2,3-dicarboxylic acid diamides” (BASF Aktiengesellschaft, priority 1999, dated 2002)

Legend:
[1] = test system: IPOSS; experiment: Herbicidal activity post-emergence in greenhouse, morning glory; type: in vivo; conditions: 100 = complete destruction, 0 = no damage
Text: (§1) The herbicidal action of the pyridine-2,3-dicarboxamides of the formula I was examined in greenhouse experiments: […]
(§2) The growing containers used were plastic pots containing loamy sand with approximately 3.0% of humus as the substrate. The seeds of the test plants were sown separately for each species.
(§3) For the post-emergence treatment, the test plants were first grown to a plant height of 3 to 15 cm, depending on the growth habit, and then treated with the active ingredients which had been suspended or emulsified in water. The test plants were either sown directly and grown in the same containers or first grown separately as seedlings and transplanted into the test containers a few days prior to treatment. The rate of application for the post-emergence treatment was 0.5; 0.0625; 0.0313 or 0.0156 kg/ha of a.s.
(§4) Depending on the species, the plants were kept at 10-25° C. or 20-35° C. The test period extended over 2 to 4 weeks. During this time, the plants were tended, and their response to the individual treatments was evaluated.
(§5) Evaluation was carried out using a scale from 0 to 100. 100 means no emergence of the plants or complete destruction of at least the above-ground parts, and 0 means no damage or normal course of growth.
(§6) The plants used in the greenhouse experiments belonged to the following species: […]

[2] = test system: VIOAR; experiment: Herbicidal activity post-emergence in greenhouse, violet; type: in vivo; conditions: application rate 0.5 kg of a.s./ha, 100 = complete destruction, 0 = no damage
Text: as §1, §2, §3, §4, §5, §6

[3] = test system: ECGCG; experiment: Herbicidal activity post-emergence in greenhouse, barnyard grass; type: in vivo; conditions: application rate 0.5 kg of a.s./ha, 100 = complete destruction, 0 = no damage
Text: as §1, §2, §3, §4, §5, §6

[4] = test system: GALAP; experiment: Herbicidal activity post-emergence in greenhouse, catchweed bedstraw; type: in vivo; conditions: application rate 0.5 kg of a.s./ha, 100 = complete destruction, 0 = no damage
Text: as §1, §2, §3, §4, §5, §6

[5] = test system: AMARE; experiment: Herbicidal activity post-emergence in greenhouse, redroot pigweed; type: in vivo; conditions: 100 = complete destruction, 0 = no damage
Text: as §1, §2, §3, §4, §5, §6

[6] = test system: ALOMY; experiment: Herbicidal activity post-emergence in greenhouse, blackgrass; type: in vivo; conditions: 100 = complete destruction, 0 = no damage
Text: as §1, §2, §3, §4, §5, §6

[7] = test system: SOLNI; experiment: Herbicidal activity post-emergence in greenhouse, black nightshade; type: in vivo; conditions: 100 = complete destruction, 0 = no damage
Text: as §1, §2, §3, §4, §5, §6

[8] = application rate 0.0313 kg of a.s./ha
[9] = application rate 0.0625 kg of a.s./ha

Row | melting point | Compound | Herbicidal activity (scale 0 to 100), IPOSS [1, 8] | Herbicidal activity (scale 0 to 100), IPOSS [1, 9] | Herbicidal activity (scale 0 to 100), AMARE [5, 8] | Herbicidal activity (scale 0 to 100), AMARE [5, 9] | Herbicidal activity (scale 0 to 100), ALOMY [6, 8] | Herbicidal activity (scale 0 to 100), ALOMY [6, 9] | also measured
1 | 175 to 178 °C | CCCNC(=O)c1nc(C)ccc1C(=O)Nc1cccc2ccccc12 [Example 1, N-n-Propyl-3-(1-naphthyl)aminocarbonyl-6-methylpyridine-2-carboxamide] | – | – | – | – | – | – | –
2 | 180 to 181 °C | Cc1ccc2c(n1)C(=O)N(c1cccc(S(C)(=O)=O)c1C)C2=O [Example 3, N-(2-Methyl-3-methylsulfonylphenyl)-6-methylpyridine-2,3-dicarboximide] | – | – | – | – | – | – | –
3 | – | CCCNC(=O)c1nc(Cl)c(C)cc1C(=O)Nc1cccc(Cl)c1C | – | – | – | – | – | – | Herbicidal activity (scale 0 to 100), IPOSS ([1]; application rate 0.5 kg of a.s./ha): 100; Herbicidal activity (scale 0 to 100), VIOAR [2]: 100; Herbicidal activity (scale 0 to 100), ECHCG [3]: 100; Herbicidal activity (scale 0 to 100), GALAP [4]: 100
4 | 151 to 152 °C | CCCNC(=O)c1nc(C)ccc1C(=O)Nc1cccc(SC)c1C [Example 2, N-n-Propyl-3-(2-methyl-3-methylthiophenyl)aminocarbonyl-6-methylpyridine-2-carboxamide] | – | – | – | – | – | – | –
5 | – | CCCNC(=O)c1nc(C)ccc1C(=O)Nc1cccc2ccccc12 [drawing 67] | 98 | 100 | 98 | 100 | 75 | 85 | –
6 | – | CCCNC(=O)c1nc(OC)c(Cl)cc1C(=O)Nc1cccc(Cl)c1C | 98 | 100 | 98 | 100 | 75 | 85 | Herbicidal activity (scale 0 to 100), SOLNI [7, 8]: 100; Herbicidal activity (scale 0 to 100), SOLNI [7, 9]: 100
